Assay results: PubChem BioAssay (NCI)
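These data come from cells grown in 96-well plates and exposed to compound for 48 hours at five concentrations. TGI marks complete inhibition of growth.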

Experiments:
Experiment in all cases: DTP human tumour cell line panel, 48 h
[1] = tested on: PC-3 prostate
[2] = tested on: NCI-H226 lung
[3] = tested on: KM12 colon
[4] = tested on: T-47D breast
[5] = tested on: DU-145 prostate
[6] = tested on: A549 NSCLC
[7] = tested on: SN12C renal
[8] = tested on: U251 CNS
[9] = tested on: TK-10 renal
[10] = tested on: 786-0 renal
[11] = tested on: HS 578T breast
[12] = tested on: HCT-116 colon
[13] = tested on: HOP-92 NSCLC
[14] = tested on: MALME-3M melanoma
[15] = tested on: EKVX NSCLC
[16] = tested on: HT29 colon
[17] = tested on: NCI/ADR-RES ovarian
[18] = tested on: LOX IMVI melanoma
[19] = tested on: SK-MEL-5 melanoma
[20] = tested on: K-562 leukemia
[21] = tested on: RPMI-8226 leukemia
[22] = tested on: BT-549 breast
[23] = tested on: COLO 205 colon
[24] = tested on: ACHN renal
[25] = tested on: MOLT-4 leukemia
[26] = tested on: SK-OV-3 ovarian
[27] = tested on: OVCAR-8 ovarian
[28] = tested on: UACC-257 melanoma
[29] = tested on: UO-31 renal
[30] = tested on: SNB-19 CNS
[31] = tested on: NCI-H23 lung
[32] = tested on: SF-268 CNS
[33] = tested on: SNB-75 CNS
[34] = tested on: CAKI-1 renal
[35] = tested on: OVCAR-4 ovarian
[36] = tested on: UACC-62 melanoma
[37] = tested on: IGROV1 ovarian
[38] = tested on: HOP-62 NSCLC
[39] = tested on: OVCAR-5 ovarian
[40] = tested on: MDA-MB-435
[41] = tested on: HCC-2998 colon
[42] = tested on: SW-620 colon
[43] = tested on: SK-MEL-28 melanoma
[44] = tested on: MDA-N
[45] = tested on: CCRF-CEM leukemia
[46] = tested on: HCT-15 colon
[47] = tested on: MDA-MB-231 breast
[48] = tested on: RXF 393 renal
[49] = tested on: MCF7 breast
[50] = tested on: NCI-H460 lung
[51] = tested on: M14 melanoma
[52] = tested on: SF-295 CNS
[53] = tested on: HL-60(TB) leukemia
[54] = tested on: A498 renal
[55] = tested on: SK-MEL-2 melanoma
[56] = tested on: OVCAR-3 ovarian
[57] = tested on: NCI-H522 lung
[58] = tested on: SF-539 CNS

Compound: COc1ccc2nc(N/N=C/c3sccc3C)cc(C)c2c1
- TGI [1]: 38.7 µM
- TGI [2]: 42.6 µM
- TGI [3]: 38.3 µM
- TGI [4]: > 100 µM
- TGI [5]: 44.5 µM
- TGI [6]: 56.9 µM
- TGI [7]: 48.2 µM
- TGI [8]: 73.5 µM
- TGI [9]: 28.1 µM
- TGI [10]: 27.6 µM
- TGI [11]: 55.3 µM
- TGI [12]: 23.8 µM
- TGI [13]: 26.4 µM
- TGI [14]: 31.3 µM
- TGI [15]: 55.4 µM
- TGI [16]: 24 µM
- TGI [17]: 55.1 µM
- TGI [18]: 32.9 µM
- TGI [19]: 25.5 µM
- TGI [20]: > 100 µM
- TGI [21]: 45.3 µM
- TGI [22]: 32.2 µM
- TGI [23]: 32.7 µM
- TGI [24]: 56.2 µM
- TGI [25]: 50.7 µM
- TGI [26]: 32.1 µM
- TGI [27]: > 100 µM
- TGI [28]: 32.3 µM
- TGI [29]: 65.1 µM
- TGI [30]: > 100 µM
- TGI [31]: 28.9 µM
- TGI [32]: 47.8 µM
- TGI [33]: 37.1 µM
- TGI [34]: > 100 µM
- TGI [35]: 99.5 µM
- TGI [36]: 27.1 µM
- TGI [37]: 32.4 µM
- TGI [38]: 36.3 µM
- TGI [39]: 61.3 µM
- TGI [40]: 43.9 µM
- TGI [41]: 41.2 µM
- TGI [42]: 65 µM
- TGI [43]: 50.5 µM
- TGI [44]: 39.4 µM
- TGI [45]: 67 µM
- TGI [46]: 30.5 µM
- TGI [47]: 16.1 µM
- TGI [48]: 62.6 µM
- TGI [49]: 55.5 µM
- TGI [50]: 28.2 µM
- TGI [51]: 25.3 µM
- TGI [52]: 21.7 µM
- TGI [53]: 47.6 µM
- TGI [54]: 26.9 µM
- TGI [55]: 63.1 µM
- TGI [56]: 45.8 µM

Compound: COc1cc2c(cc1O)c(O)cc1c3cc(OC)c(OC)cc3c[n+](C)c21
- TGI [1]: > 100 µM
- TGI [2]: > 25.6 µM
- TGI [57]: 25.2 µM
- TGI [3]: > 100 µM
- TGI [4]: > 80.3 µM
- TGI [5]: > 43.7 µM
- TGI [6]: > 100 µM
- TGI [8]: 4.57 µM
- TGI [9]: > 100 µM
- TGI [10]: > 100 µM
- TGI [11]: > 27.4 µM
- TGI [12]: > 100 µM
- TGI [14]: > 100 µM
- TGI [15]: > 100 µM
- TGI [16]: > 61.4 µM
- TGI [17]: > 100 µM
- TGI [18]: > 55.2 µM
- TGI [19]: 40.2 µM
- TGI [20]: > 80.5 µM
- TGI [21]: > 100 µM
- TGI [22]: > 100 µM
- TGI [23]: > 100 µM
- TGI [24]: > 100 µM
- TGI [25]: 40.3 µM
- TGI [26]: > 100 µM
- TGI [27]: > 79 µM
- TGI [28]: > 100 µM
- TGI [29]: > 100 µM
- TGI [30]: > 100 µM
- TGI [31]: 29.5 µM
- TGI [32]: > 100 µM
- TGI [33]: > 100 µM
- TGI [34]: > 100 µM
- TGI [35]: > 100 µM
- TGI [36]: > 100 µM
- TGI [38]: > 100 µM
- TGI [39]: > 100 µM
- TGI [40]: 30.9 µM
- TGI [41]: > 100 µM
- TGI [42]: > 100 µM
- TGI [43]: > 100 µM
- TGI [44]: 35.7 µM
- TGI [45]: > 100 µM
- TGI [46]: > 100 µM
- TGI [47]: > 67.9 µM
- TGI [48]: > 100 µM
- TGI [49]: > 100 µM
- TGI [58]: > 100 µM
- TGI [50]: > 100 µM
- TGI [51]: > 100 µM
- TGI [52]: > 100 µM
- TGI [54]: > 100 µM
- TGI [55]: > 100 µM
- TGI [56]: > 100 µM
